From paper PMC9781320 (Marine Drugs, 2022)
Positions of bridges follow the written chain, without caps; N, C: chain ends. Residues, ends and D or L forms follow the SMILES beside them.

What was measured:
GABABR-coupled CaV2.2 [1] = molecular target: T1, GABABR-coupled CaV2.2 (Homo sapiens, UniProt O75899+Q9UBS5); assay: cell-based; set-up: species or system rat Cav2.2; conditions: for inhibition at 1 µM: HEK293, read-out: Inhibition Efficacy (1 µM)%, SEM; for IC50: IC50 (nM) (95% Confidence Interval)
T1 construct: expressed in transfected cells
T1 sequence (Q9UBS5 15-961 limits assumed): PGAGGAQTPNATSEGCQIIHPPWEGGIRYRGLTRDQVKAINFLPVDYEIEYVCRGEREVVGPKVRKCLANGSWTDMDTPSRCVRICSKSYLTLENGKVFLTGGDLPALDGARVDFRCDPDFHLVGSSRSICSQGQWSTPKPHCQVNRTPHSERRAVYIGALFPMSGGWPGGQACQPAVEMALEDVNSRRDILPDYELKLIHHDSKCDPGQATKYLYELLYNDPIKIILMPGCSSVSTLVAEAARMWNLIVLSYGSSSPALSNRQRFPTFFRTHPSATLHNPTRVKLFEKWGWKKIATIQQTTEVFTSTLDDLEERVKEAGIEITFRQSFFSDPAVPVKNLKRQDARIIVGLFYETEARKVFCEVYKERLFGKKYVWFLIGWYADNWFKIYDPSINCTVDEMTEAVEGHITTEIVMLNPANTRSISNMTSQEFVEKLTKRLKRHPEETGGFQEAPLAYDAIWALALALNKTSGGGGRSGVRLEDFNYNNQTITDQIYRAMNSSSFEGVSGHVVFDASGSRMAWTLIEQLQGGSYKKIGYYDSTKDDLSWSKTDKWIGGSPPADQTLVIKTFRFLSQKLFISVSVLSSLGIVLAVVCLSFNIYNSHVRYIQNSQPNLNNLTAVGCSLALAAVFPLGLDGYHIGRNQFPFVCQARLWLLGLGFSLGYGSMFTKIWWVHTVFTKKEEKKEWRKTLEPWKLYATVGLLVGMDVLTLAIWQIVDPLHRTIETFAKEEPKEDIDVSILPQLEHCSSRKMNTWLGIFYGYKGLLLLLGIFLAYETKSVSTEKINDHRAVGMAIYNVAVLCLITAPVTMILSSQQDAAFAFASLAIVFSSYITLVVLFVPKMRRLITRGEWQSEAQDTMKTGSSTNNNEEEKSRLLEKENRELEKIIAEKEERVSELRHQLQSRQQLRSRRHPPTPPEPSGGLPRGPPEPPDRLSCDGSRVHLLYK
T1 sequence (O75899 42-941): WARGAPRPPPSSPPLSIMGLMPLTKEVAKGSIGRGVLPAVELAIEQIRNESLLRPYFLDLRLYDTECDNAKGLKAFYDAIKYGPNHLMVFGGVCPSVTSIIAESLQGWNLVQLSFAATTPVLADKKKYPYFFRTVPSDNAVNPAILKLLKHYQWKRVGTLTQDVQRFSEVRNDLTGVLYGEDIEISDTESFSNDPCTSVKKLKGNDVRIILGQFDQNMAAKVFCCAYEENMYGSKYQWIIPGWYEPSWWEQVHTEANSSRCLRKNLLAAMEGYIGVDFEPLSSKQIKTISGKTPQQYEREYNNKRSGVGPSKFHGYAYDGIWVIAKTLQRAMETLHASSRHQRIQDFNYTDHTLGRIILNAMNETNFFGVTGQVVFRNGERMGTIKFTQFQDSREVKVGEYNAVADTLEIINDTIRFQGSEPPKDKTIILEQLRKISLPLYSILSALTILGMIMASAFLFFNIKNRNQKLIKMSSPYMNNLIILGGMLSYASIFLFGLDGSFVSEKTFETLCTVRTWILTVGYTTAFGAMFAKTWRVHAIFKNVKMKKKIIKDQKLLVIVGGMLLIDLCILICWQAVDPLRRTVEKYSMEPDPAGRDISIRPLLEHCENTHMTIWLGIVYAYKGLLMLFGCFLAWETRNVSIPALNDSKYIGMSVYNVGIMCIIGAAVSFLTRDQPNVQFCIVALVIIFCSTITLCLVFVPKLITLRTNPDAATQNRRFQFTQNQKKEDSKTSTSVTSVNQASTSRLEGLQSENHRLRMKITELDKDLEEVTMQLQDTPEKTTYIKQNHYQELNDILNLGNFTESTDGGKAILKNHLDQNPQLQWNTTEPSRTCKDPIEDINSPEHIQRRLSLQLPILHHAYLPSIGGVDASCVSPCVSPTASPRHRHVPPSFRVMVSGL

CaV2.2 = molecular target: T2, CaV2.2 (Rattus norvegicus, UniProt Q02294); type: cell-based
T2 construct: expressed in transfected cells; host or cells: HEK293

α2β4 nAChR = molecular target: T3, α2β4 nAChR (Rattus norvegicus, UniProt P12389+P12392); type: cell-based; conditions: SEM
T3 construct: expressed in transfected cells; host or cells: Xenopus oocytes, cRNA injected

α3β2 nAChR = molecular target: T4, α3β2 nAChR (Rattus norvegicus, UniProt P04757+P12390); type: cell-based; conditions: SEM
T4 construct: expressed in transfected cells; host or cells: Xenopus oocytes, cRNA injected
T4 sequence (P04757 26-499 limits assumed): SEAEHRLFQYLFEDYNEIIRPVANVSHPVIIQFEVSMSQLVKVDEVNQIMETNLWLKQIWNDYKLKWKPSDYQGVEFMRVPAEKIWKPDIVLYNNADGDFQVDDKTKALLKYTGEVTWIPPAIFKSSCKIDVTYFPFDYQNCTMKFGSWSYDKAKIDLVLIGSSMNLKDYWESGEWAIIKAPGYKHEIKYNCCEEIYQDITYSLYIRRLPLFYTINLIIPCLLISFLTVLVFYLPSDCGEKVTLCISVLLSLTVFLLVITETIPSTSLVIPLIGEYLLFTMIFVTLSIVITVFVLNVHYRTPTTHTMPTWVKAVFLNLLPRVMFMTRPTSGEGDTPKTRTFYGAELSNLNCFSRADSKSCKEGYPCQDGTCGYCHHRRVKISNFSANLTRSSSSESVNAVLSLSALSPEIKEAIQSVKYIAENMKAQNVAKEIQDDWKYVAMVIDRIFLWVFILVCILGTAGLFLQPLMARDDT
T4 sequence (P12390 25-500 limits assumed): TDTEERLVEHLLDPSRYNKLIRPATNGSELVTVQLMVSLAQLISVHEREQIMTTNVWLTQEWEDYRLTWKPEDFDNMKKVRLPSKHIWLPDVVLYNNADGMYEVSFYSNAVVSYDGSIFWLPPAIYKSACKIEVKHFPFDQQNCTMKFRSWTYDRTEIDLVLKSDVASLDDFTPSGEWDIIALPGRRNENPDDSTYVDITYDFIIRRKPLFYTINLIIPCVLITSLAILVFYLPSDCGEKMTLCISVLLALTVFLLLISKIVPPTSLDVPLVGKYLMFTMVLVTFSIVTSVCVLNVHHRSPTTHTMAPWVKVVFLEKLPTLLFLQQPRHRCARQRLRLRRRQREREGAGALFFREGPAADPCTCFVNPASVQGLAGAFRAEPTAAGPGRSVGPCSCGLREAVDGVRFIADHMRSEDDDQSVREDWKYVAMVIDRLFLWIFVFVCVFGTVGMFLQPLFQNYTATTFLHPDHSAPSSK

α3β4 nAChR = molecular target: T5, α3β4 nAChR (Rattus norvegicus, UniProt P04757+P12392); type: cell-based; conditions: SEM
T5 construct: expressed in transfected cells; host or cells: Xenopus oocytes, cRNA injected
T5 sequence (P04757 26-499 limits assumed): as the sequence (P04757 26-499 limits assumed) above
T5 sequence (P12392 21-495 limits assumed): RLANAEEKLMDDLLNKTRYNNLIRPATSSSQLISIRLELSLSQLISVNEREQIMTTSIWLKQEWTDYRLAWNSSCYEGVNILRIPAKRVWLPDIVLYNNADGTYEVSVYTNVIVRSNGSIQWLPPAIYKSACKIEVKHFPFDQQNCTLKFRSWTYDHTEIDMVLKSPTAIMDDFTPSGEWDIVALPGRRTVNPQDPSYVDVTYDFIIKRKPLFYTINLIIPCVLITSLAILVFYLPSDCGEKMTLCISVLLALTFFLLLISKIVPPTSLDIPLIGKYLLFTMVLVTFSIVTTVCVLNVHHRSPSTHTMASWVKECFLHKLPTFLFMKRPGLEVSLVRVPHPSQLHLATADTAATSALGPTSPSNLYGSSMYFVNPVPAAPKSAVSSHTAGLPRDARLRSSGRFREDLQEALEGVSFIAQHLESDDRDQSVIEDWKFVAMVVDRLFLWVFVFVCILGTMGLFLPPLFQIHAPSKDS

α4β2 nAChR = molecular target: T6, α4β2 nAChR (Rattus norvegicus, UniProt P09483+P12390); type: cell-based; conditions: SEM
T6 construct: expressed in transfected cells; host or cells: Xenopus oocytes, cRNA injected
T6 sequence (P09483 31-630 limits assumed): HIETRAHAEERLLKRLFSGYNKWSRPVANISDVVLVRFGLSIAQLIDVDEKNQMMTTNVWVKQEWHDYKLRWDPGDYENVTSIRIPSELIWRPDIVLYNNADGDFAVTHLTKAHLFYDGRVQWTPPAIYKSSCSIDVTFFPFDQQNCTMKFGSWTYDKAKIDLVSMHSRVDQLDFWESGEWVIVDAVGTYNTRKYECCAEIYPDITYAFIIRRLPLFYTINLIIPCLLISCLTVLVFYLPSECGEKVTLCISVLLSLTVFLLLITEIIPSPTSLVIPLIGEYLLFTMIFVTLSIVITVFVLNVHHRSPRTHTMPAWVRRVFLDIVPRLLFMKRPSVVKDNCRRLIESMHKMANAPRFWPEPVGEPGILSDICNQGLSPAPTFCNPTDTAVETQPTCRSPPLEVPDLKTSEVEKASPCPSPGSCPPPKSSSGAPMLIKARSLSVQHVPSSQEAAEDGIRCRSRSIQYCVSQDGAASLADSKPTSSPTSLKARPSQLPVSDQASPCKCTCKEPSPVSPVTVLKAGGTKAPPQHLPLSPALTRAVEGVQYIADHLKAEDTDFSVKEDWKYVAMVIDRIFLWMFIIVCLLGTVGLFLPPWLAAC
T6 sequence (P12390 25-500 limits assumed): as the sequence (P12390 25-500 limits assumed) above

α4β4 nAChR = molecular target: T7, α4β4 nAChR (Rattus norvegicus, UniProt P09483+P12392); type: cell-based; conditions: SEM
T7 construct: expressed in transfected cells; host or cells: Xenopus oocytes, cRNA injected
T7 sequence (P09483 31-630 limits assumed): as the sequence (P09483 31-630 limits assumed) above
T7 sequence (P12392 21-495 limits assumed): as the sequence (P12392 21-495 limits assumed) above

α7 nAChR = molecular target: T8, α7 nAChR (Rattus norvegicus, UniProt Q05941); type: cell-based; conditions: SEM
T8 construct: expressed in transfected cells; host or cells: Xenopus oocytes, cRNA injected

α9α10 nAChR = molecular target: T9, α9α10 nAChR (Rattus norvegicus, UniProt P43144+Q9JLB5); type: cell-based; conditions: SEM
T9 construct: expressed in transfected cells; host or cells: Xenopus oocytes, cRNA injected
T9 sequence (P43144 26-479 limits assumed): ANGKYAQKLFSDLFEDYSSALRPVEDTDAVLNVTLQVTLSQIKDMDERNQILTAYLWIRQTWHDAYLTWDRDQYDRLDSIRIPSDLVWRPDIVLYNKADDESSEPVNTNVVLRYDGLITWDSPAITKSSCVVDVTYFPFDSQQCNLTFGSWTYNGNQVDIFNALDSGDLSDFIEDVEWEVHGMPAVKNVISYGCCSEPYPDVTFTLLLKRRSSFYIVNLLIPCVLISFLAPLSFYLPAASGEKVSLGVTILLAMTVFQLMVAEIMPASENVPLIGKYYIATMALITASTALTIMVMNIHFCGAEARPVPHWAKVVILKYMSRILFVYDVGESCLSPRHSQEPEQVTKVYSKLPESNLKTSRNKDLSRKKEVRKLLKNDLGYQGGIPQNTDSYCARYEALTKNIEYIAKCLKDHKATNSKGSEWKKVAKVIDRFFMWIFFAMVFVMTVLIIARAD
T9 sequence (Q9JLB5 25-447 limits assumed): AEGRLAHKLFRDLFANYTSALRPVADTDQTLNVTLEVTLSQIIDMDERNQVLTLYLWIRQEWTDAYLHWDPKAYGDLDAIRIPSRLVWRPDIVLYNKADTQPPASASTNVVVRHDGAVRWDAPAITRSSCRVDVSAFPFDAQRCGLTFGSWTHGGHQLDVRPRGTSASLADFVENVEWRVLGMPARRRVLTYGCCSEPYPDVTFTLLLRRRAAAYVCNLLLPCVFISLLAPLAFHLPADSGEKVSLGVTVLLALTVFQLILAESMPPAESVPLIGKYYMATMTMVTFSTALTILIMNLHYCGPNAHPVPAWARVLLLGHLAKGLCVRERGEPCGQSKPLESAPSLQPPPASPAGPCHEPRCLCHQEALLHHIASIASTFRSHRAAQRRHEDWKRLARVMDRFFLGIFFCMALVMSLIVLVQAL

GABABR-coupled CaV2.2 [2] = conditions: cited from earlier work

## C[C@@H]1NC(=O)[C@H](Cc2ccccc2)NC(=O)[C@@H]2CSSC[C@H](NC(=O)CN)C(=O)N[C@@H](CSSC[C@@H](C(N)=O)NC(=O)[C@H](CC(=O)O)NC(=O)[C@@H]3CCCN3C(=O)[C@H](CC(N)=O)NC(=O)[C@H]([C@@H](C)O)NC1=O)C(=O)N[C@@H](CO)C(=O)N[C@@H](Cc1ccc(O)cc1)C(=O)N1CCC[C@H]1C(=O)N1CCC[C@H]1C(=O)N2 [AuIB(globular), reference compound]
GABABR-coupled CaV2.2 [1]
  inhibition at 1 µM: 27.4 ± 2.05%
  IC50: 1.93 nM

## CC[C@H](C)[C@@H]1NC(=O)[C@H](CC(=O)O)NC(=O)[C@@H]2CCCN2C(=O)[C@H](CC(N)=O)NC(=O)[C@H]([C@@H](C)O)NC(=O)[C@H](C)NC(=O)[C@H](Cc2ccccc2)NC(=O)[C@@H]2CSSC[C@H](NC(=O)CN)C(=O)N[C@@H](CSSC[C@@H](C(N)=O)NC1=O)C(=O)N[C@@H](CO)C(=O)N[C@@H](Cc1ccc(O)cc1)C(=O)N1CCC[C@H]1C(=O)N1CCC[C@H]1C(=O)N2 [AuIB[+15I]]
GABABR-coupled CaV2.2 [1]
  inhibition at 1 µM: 30.4 ± 3.26%

## CC(C)C[C@@H]1NC(=O)[C@H](CC(=O)O)NC(=O)[C@@H]2CCCN2C(=O)[C@H](CC(N)=O)NC(=O)[C@H]([C@@H](C)O)NC(=O)[C@H](C)NC(=O)[C@H](Cc2ccccc2)NC(=O)[C@@H]2CSSC[C@H](NC(=O)CN)C(=O)N[C@@H](CSSC[C@@H](C(N)=O)NC1=O)C(=O)N[C@@H](CO)C(=O)N[C@@H](Cc1ccc(O)cc1)C(=O)N1CCC[C@H]1C(=O)N1CCC[C@H]1C(=O)N2 [AuIB[+15L]]
GABABR-coupled CaV2.2 [1]
  inhibition at 1 µM: 27.9 ± 1.37%

## C[C@@H]1NC(=O)[C@H](Cc2ccccc2)NC(=O)[C@@H]2CSSC[C@H](NC(=O)[C@@H](NC(=O)CN)CSSC[C@@H](C(N)=O)NC(=O)[C@H](CC(=O)O)NC(=O)[C@@H]3CCCN3C(=O)[C@H](CC(N)=O)NC(=O)[C@H]([C@@H](C)O)NC1=O)C(=O)N[C@@H](CO)C(=O)N[C@@H](Cc1ccc(O)cc1)C(=O)N1CCC[C@H]1C(=O)N[C@@H](CCCNC(=N)N)C(=O)N2 [AuIB[P7R](ribbon)] (H-GCCSYPRCFATNPDC-NH2; disulfide 2-15, 3-8)
GABABR-coupled CaV2.2 [1]
  inhibition at 1 µM: 51.6 ± 1.86%
  IC50: 0.74 nM
CaV2.2
  direct inhibitory effect on CaV2.2: 14.87 ± 2.42%
α2β4 nAChR
  Inhibitory effect on α2β4 nAChR: 39.43 ± 6.31%
α3β2 nAChR
  Inhibitory effect on α3β2 nAChR: 29.25 ± 12.65%
α3β4 nAChR
  Inhibitory effect on α3β4 nAChR: 39.27 ± 6.45%
α4β2 nAChR
  Inhibitory effect on α4β2 nAChR: 35.92 ± 12.50%
α4β4 nAChR
  Inhibitory effect on α4β4 nAChR: 30.44 ± 8.03%
α7 nAChR
  Inhibitory effect on α7 nAChR: 17.00 ± 0.35%
α9α10 nAChR
  Inhibitory effect on α9α10 nAChR: 5.09 ± 7.85%

## Vc1.1
GABABR-coupled CaV2.2 [2]
  IC50: 2.38 nM
